Measured values from publication PMC6467689 (ACS infectious diseases, 2018).

What was measured:
MukB [1] = target: T1, MukB (Escherichia coli, UniProt P22523); experiment: magnetic bead DNA bridging pull-down; assay type: biochemical; details: 20 mM HEPES pH 7.7, 50 mM NaCl, 2 mM MgCl2, 5% glycerol, 1 mM DTT
MukB [2] = target: T1, MukB; experiment: SPR; assay type: binding; details: 25 uM compound, 20 mM HEPES-KOH pH 7.0, 50 mM NaCl, 0.5% DMSO

T1 sequence (P22523 whole entry): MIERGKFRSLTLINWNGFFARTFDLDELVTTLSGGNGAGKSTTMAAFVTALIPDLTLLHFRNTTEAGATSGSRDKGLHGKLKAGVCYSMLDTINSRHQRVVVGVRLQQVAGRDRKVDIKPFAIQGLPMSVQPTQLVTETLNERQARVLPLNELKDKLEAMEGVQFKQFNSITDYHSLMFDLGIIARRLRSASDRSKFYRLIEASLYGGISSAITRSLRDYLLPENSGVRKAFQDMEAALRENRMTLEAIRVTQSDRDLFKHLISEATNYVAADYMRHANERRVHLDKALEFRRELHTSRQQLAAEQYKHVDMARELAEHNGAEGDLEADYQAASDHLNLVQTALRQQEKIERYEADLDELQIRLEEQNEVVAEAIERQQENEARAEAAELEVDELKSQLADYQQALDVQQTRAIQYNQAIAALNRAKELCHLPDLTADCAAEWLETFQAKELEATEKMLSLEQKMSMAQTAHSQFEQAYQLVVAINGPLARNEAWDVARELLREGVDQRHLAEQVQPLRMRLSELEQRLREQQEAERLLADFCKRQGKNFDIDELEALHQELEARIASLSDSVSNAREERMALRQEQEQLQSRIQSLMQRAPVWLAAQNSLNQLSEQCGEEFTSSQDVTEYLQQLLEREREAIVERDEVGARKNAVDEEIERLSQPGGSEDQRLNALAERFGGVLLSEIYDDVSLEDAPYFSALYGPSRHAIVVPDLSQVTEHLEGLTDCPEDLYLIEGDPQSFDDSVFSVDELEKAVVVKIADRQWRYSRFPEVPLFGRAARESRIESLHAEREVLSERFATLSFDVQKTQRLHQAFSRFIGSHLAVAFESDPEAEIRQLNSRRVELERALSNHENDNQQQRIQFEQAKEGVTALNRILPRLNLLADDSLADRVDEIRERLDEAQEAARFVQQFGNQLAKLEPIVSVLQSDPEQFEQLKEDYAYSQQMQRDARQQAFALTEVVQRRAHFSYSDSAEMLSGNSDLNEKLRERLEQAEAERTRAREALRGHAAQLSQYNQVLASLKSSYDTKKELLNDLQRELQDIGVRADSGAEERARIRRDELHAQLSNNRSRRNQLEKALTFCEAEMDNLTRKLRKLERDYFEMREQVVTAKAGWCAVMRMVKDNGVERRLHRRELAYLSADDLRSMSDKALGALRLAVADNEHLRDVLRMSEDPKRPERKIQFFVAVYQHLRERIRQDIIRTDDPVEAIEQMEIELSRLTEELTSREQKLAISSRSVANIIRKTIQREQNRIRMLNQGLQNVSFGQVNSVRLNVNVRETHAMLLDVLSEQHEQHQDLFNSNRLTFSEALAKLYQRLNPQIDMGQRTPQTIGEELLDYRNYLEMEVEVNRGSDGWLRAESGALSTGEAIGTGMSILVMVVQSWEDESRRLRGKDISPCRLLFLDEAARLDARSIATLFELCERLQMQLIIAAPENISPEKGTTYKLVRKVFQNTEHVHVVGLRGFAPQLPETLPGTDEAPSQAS

| SMILES | inhibition of DNA bridging (MukB [1]) | SPR (Biacore, MukB immobilised on CM5 chip) (MukB [2]) |
| --- | --- | --- |
| COC1=C(N)C(=O)c2nc(-c3nc(C(=O)O)c(C)c(-c4ccc(OC)c(OC)c4O)c3N)ccc2C1=O [NSC45383] | Michellamine B, NSC71795 and, to a smaller degree, NSC45383, inhibit MukB mediated DNA bridging | A much weaker binding could be detected for NSC71795 (ellipticine) and NSC45383 (streptonigrin) |
| Cc1c2ccncc2c(C)c2c1[nH]c1ccccc12 [NSC71795] | Michellamine B, NSC71795 and, to a smaller degree, NSC45383, inhibit MukB mediated DNA bridging | A much weaker binding could be detected for NSC71795 (ellipticine) and NSC45383 (streptonigrin) |
| COc1cc(C)cc2c(-c3c(O)cc(O)c4c3C[C@H](C)N[C@H]4C)cc(-c3cc(-c4c(O)cc(O)c5c4C[C@H](C)N[C@H]5C)c4cc(C)cc(OC)c4c3O)c(O)c12 [NSC661755, Michellamine B] | Michellamine B, NSC71795 and, to a smaller degree, NSC45383, inhibit MukB mediated DNA bridging |  |
